As usually defined, the melting point is the temperature of the solid-liquid transition.

Regarding `Cc1ccc(Cl)cc1Nc1cc(-c2ccc(C(F)(F)F)cc2)ncn1` [Example 65], the melting point fell in the range of 144 to 146 °C.
`CC(=O)Nc1ccc(Nc2cc(-c3ccc(C(F)(F)F)cc3)ncn2)cc1` [Example 66] registered a melting point of 236 to 238 °C.
Compound `FC(F)(F)c1ccc(-c2cc(Nc3ccc4ccccc4c3)ncn2)cc1` [Example 70] registered a melting point of 212 to 213 °C.
Under `FC(F)(F)c1ccc(-c2cc(Nc3ccc4ncccc4c3)ncn2)cc1` [Example 72] stands 268 to 269 °C; under `FC(F)(F)c1ccc(-c2cc(Nc3cccc4cccnc34)ncn2)cc1` [Example 73], 162 to 163 °C.
`FC(F)(F)c1ccc(-c2cc(Nc3cccc4ncccc34)ncn2)cc1` [Example 74] showed a melting point of 238 to 239 °C.
Under `FC(F)(F)c1ccc(-c2cc(Nc3cccc4ccccc34)ncn2)cc1` [Example 76] stands 232 to 233 °C; under `COc1ccc(-c2nnc(Nc3ccc4cccnc4c3)cc2-c2ccc(C(F)(F)F)cc2)cc1` [Example 89, [6-(4-Methoxyphenyl)-5-(4-trifluoromethylphenyl)pyridazin-3-yl]-[quinolin-7-yl]amine], 215 to 217 °C; under `CC(=O)Nc1nc2c(Nc3cc(-c4ccc(C(F)(F)F)cc4)ncn3)cccc2s1` [N-{4-[6-(4-Trifluoromethylphenyl)pyrimidin-4-ylamino]benzothiazol-2-yl}acetamide], more than 250 °C.
The compound `CC(C)(C)c1ccc(-c2cc(Nc3ccc4ncsc4c3)nc(N)n2)cc1.Cl` [N^4-Benzothiazol-6-yl-6-(4-tert-butylphenyl)pyrimidine-2,4-diamine hydrochloride] registered a melting point of 220 to 222 °C.
With `Nc1nc2c(Nc3cc(-c4ccc(C(F)(F)F)cc4)ncn3)cccc2s1` [N^4-[6-(4-Trifluoromethylphenyl)pyrimidin-4-yl]benzothiazole-2,4-diamine], the melting point was in the range of 225 to 227 °C.
Under `Nc1ccc2cccc(Nc3cc(-c4ccc(C(F)(F)F)cc4)ncn3)c2n1` [N^8-[6-(4-Trifluoromethylphenyl)pyrimidin-4-yl]quinoline-2,8-diamine] stands 211 to 213 °C.
In turn, `FC(F)(F)c1ccc(-c2cc(Nc3ccc4cccnc4c3)ncn2)cc1` [Quinolyl-7-yl-[6-(4-trifluoromethylphenyl)pyrimidin-4-yl]amine] returned a melting point of 260 °C.
In the case of `CC(C)(C)c1ccc(-c2cc(Nc3ccc4[nH]ccc4c3)nnc2-c2ccccc2)cc1` [[5-(4-tert-Butylphenyl)-6-phenyl-pyridazin-3-yl]-(1H-indol-5-yl)-amine] it was 138 to 140 °C; in that of `Nc1cc(C(F)(F)F)ccc1-c1cc(Nc2ccc3ncsc3c2)ncn1` [[6-(2-Amino-4-trifluoromethylphenyl)pyrimidin-4-yl]benzothiazol-6-ylamine], 203.1 to 203.2 °C; in that of `CC(C)(C)c1ccc(-c2cc(Nc3ccc4c(c3)OCCO4)ncn2)cc1` [[6-(4-tert-Butylphenyl)pyrimidin-4-yl]-(2,3-dihydrobenzo[1,4]dioxin-6-yl)amine], 199 to 202 °C.
Under `COc1cccc(Nc2cc(-c3ccc(C(C)(C)C)cc3)ncn2)c1` [[6-(4-tert-butylphenyl)pyrimidin-4-yl]-(3-methoxyphenyl)amine] stands 184 to 187 °C; under `CC(C)(C)c1ccc(-c2cc(Nc3ccccc3)ncn2)cc1` [[6-(4-tert-butylphenyl)pyrimidin-4-yl]phenylamine], 166 °C; under `FC(F)(F)c1ccc(-c2cc(Nc3ccc4ncsc4c3)nnc2-c2ccc(C(F)(F)F)cc2)cc1` [benzothiazol-6-yl-[5,6-bis-(4-trifluoromethylphenyl)pyridazin-3-yl]amine], 243 °C.
With `Fc1ccc(-c2nnc(Nc3ccc4ncsc4c3)cc2-c2ccc(C(F)(F)F)cc2)cc1` [benzothiazol-6-yl-[6-(4-fluorophenyl)-5-(4-trifluoromethylphenyl)pyridazin-3-yl]amine], the melting point was found to be 269 °C.
`CC(C)(C)c1ccc(-c2cc(Nc3ccc4ncsc4c3)ncn2)cc1` [benzothiazol-6-yl-[6-(4-tert-butylphenyl)pyrimidin-4-yl]amine] gave a melting point of 237 °C.
Regarding `FC(F)(F)c1ccc(-c2cc(Nc3ccc4ncsc4c3)nnc2-c2ccccc2)cc1` [benzothiazol-6-yl-[6-phenyl-5-(4-trifluoromethylphenyl)pyridazin-3-yl]amine], the melting point was determined as 272 °C.
In the case of `FC(F)(F)c1ccc(-c2cc(Nc3ccccc3)ncn2)cc1` [phenyl-[6-(4-trifluoromethylphenyl)pyrimidin-4-yl]amine] it was 184 to 186 °C; in that of `OCc1cc2cccc(Nc3cc(-c4ccc(C(F)(F)F)cc4)ncn3)c2[nH]1` [{7-[6-(4-Trifluoromethylphenyl)pyrimidin-4-ylamino]-1H-indol-2-yl}methanol], 221 to 223 °C.

(Values after patent US7053088B2, “Vanilloid receptor ligands and their use in treatments” (Amgen Inc., priority 2002, dated 2006).)
